row,SMILES,melting point [°C]
1,COC(=O)c1cn(C)c(-c2ccc(N)cc2)c1C(=O)OC,181 to 183
2,CC(C)c1nc(C(=O)O)cs1,56 to 58
3,CN(C)S(=O)(=O)c1ccc(=O)[nH]c1,212 to 216
4,Cc1nc(N)sc1Cl,100 to 102
5,NC(C(=O)O)c1cccs1 (stereo unspecified),208 to 210
6,Cn1c(N)nnc1S,278 to 280
7,COC(=O)c1ccc2c(c1)S(=O)(=O)N=C(C)N2,275 to 277
8,CCCc1ccc(S(N)(=O)=O)cc1,208 to 210
9,CCN(CC)C(=O)c1ccc(S(=O)(=O)Cl)cc1,59 to 61
10,O=C(O)c1nn(-c2ccc(F)cc2)ccc1=O,240 to 242
11,CCOC(=O)/C(C#N)=C\Nc1ccc(Cl)cc1F,154 to 156
12,CC(O)c1cn(-c2ccccc2)nn1 (stereo unspecified),75 to 77
13,Cc1c(NC(C)C(C)C)cccc1C(=O)O (stereo unspecified),90 to 92
14,O=C(O)c1cn(Cc2cccnc2)nn1,206 to 208
15,COc1ccc(-c2nc(N)cc(=O)[nH]2)cc1,271 to 273
16,CCN(CC)c1ccc(-c2nnc(S)n2-c2ccccc2C)cc1,232 to 234
17,CCOC(=O)c1c[nH]n2c1nc(=O)c1ccccc12,201 to 203
18,OCc1cc(F)cc(CO)c1O,119 to 121
19,CCc1ccccc1Nc1nnc(S)s1,159 to 161
20,O=C(c1ccc(F)cc1)c1ccccn1,83 to 85
21,Cc1ccc(-c2csc3ncnc(Cl)c23)cc1C,179 to 181
22,NNC(=O)NCc1cccc(C(F)(F)F)c1,86 to 88
23,Cc1ccc2ccccc2c1S(=O)(=O)Cl,76 to 78
24,CCOC(=O)c1ccc2nc(CCC(=O)O)c(=O)n(CC)c2c1,181 to 185
25,O=C(Nc1ccc(O)cc1)C1CC1,212 to 214

row,SMILES,melting point [°C]
1,O=C(O)c1ccc(-c2nnc(-c3ccccc3)o2)cc1,299 to 301
2,Cc1ccc(C(=O)NC2CCNCC2)s1,163 to 165
3,O=C(O)C(O)C1CC1 (stereo unspecified),66 to 68
4,O=C(O)C1CSCN1C(=O)C1CCCC1 (stereo unspecified),114 to 116
5,NCc1ccc(S(=O)(=O)N2CCOCC2)cc1,121 to 123
6,COC(=O)c1nccc(Cl)c1F,49 to 51
7,COc1cc(C(=O)O)ccc1OC1CCCC1,153 to 155
8,Nc1nc(Cc2ccc(Cl)cc2Cl)cs1,96 to 98
9,COc1cc(C#N)ccc1OC(C)C,71 to 73
10,COC(=O)c1[nH]c(=O)[nH]c1C,229 to 231
11,CCC(=O)c1ccccc1OC(F)F,30 to 32
12,CN(C)CCCNS(=O)(=O)c1ccc(Cl)c([N+](=O)[O-])c1,98 to 100
13,Cc1ccc(-c2nc(CCl)co2)cc1,97 to 99
14,NC(=NO)c1ccc(OCc2ccccc2)cc1,167 to 169
15,NNC(=O)Nc1ccc(CCO)cc1,149 to 151
16,O=S(=O)(c1ccc2c(c1)CCCN2)N1CCCC1,130 to 132
17,Cc1nn(CC(F)(F)F)c(C)c1C(C)C(=O)O (stereo unspecified),130 to 132
18,COc1ccc(OC)c(-c2cc(C(=O)O)no2)c1,192 to 194
19,Clc1ccc2nccnc2n1,148 to 150
20,Nc1ccc(S(=O)(=O)C2CCCC2)cc1,113 to 115
21,Nc1ccccc1NS(=O)(=O)c1ccc(F)cc1,122 to 124
22,Cc1ccc(CC(=O)O)c(Cl)c1,129 to 131
23,Nc1cccc2c1CN(CCO)C2,109 to 111
24,CCNc1cc(C(=O)O)ccn1,291 to 293
25,c1ccc2[nH]c(-c3ccncc3)cc2c1,208 to 210

row,SMILES,melting point [°C]
1,O=C(O)C1Cc2ccccc2CN1C(=O)CCl (stereo unspecified),153 to 155
2,NC(=O)c1cncc(Cl)n1,166 to 168
3,Cc1cc(Cl)n2ncnc2n1,220 to 222
4,O=C1CC2(CCCCC2)Oc2cc(O)ccc21,169 to 171
5,CCOC(=O)c1ccccc1C#N,59 to 61
6,Nc1ccc(C(=O)O)nc1Cl,214 to 216
7,Fc1cc2ncnc(Cl)c2cc1F,89 to 91
8,CC(=O)c1sc(N)nc1-c1ccccc1,145 to 147
9,Cc1ccc(S(N)(=O)=O)cc1C(N)=O,192 to 194
10,O=C(c1c(F)cccc1F)N1CCNCC1,111 to 113
11,Cc1ccc2c(c1)OC(C)C(=O)N2 (stereo unspecified),154 to 156
12,c1ccc2cc(C3CO3)ccc2c1 (stereo unspecified),57 to 59
13,O=C(O)Cc1cc(Cl)c2c(c1)OCCO2,176 to 178
14,NC(=O)CNCc1ccccc1,90 to 92
15,CN(C)c1ccc(S(=O)(=O)N(C)C)cc1N,143 to 145
16,CC(=O)c1ccc(N2CCOCC2)c(F)c1,84 to 86
17,CC(C)c1nc(N)n(C)n1,108 to 110
18,O=C(O)CCC(=O)N1CCN(c2ncccn2)CC1,166 to 168
19,Nc1cccc(CN2CCSCC2)c1,87 to 89
20,O=S(=O)(Cl)C=Cc1ccc(Br)cc1,149 to 151
21,CCc1ccccc1C(=O)O,62 to 66
22,CC(=O)CC(=O)c1ccncc1,63 to 65
23,COc1ccccc1C1(C)NC(=O)N(CC(=O)O)C1=O (stereo unspecified),179 to 181
24,NC(=O)c1ccnc(F)c1,175 to 177
25,Nc1nc(-c2ccc3c(c2)OCCO3)n[nH]1,178 to 180

row,SMILES,melting point [°C]
1,NNC(=O)c1n[nH]c2c1CCCC2,176 to 178
2,Cc1cnoc1C(=O)O,133 to 135
3,CCc1ccc(/C=C/c2cc(C(=O)O)c3cc(Br)ccc3n2)cc1,286 to 288
4,CNc1ncnc2nc[nH]c12,316 to 318
5,Cc1ccc(-c2cnnc(N)n2)s1,300 to 302
6,CN(C)C(=O)COc1ccc(N)c(F)c1,106 to 108
7,CN1CCc2nc3ccccc3c(C(=O)O)c2C1,254 to 256
8,Oc1ccc2nccnc2c1,225 to 227
9,CN(C)C(=O)c1ccc(F)nc1,44 to 46
10,CCOC(=O)c1c(-c2ccccc2Cl)csc1N,65 to 73
11,CS(=O)(=O)c1ccc(-c2csc(N)n2)cc1,260 to 262
12,Cc1sc(=O)n(CCC(=O)O)c1C,150 to 152
13,CN1CCN(C(=O)C2CCCNC2)CC1 (stereo unspecified),85 to 87
14,CCCCc1ccc(NS(=O)(=O)c2ccc(C)c(C(=O)O)c2)cc1,192 to 194
15,O=S1(=O)NN=Cc2ccccc21,141 to 143
16,CC(=O)c1ccc(N2CCCC2)c(F)c1,36 to 38
17,NC(=S)c1ccn[nH]1,183 to 185
18,O=C(O)c1ccccc1N1CCCCC1,59 to 61
19,Cc1ccccc1-n1c(C)nnc1S,201 to 203
20,CCN1CCN(c2ccc(N)cc2)CC1,70 to 72
21,Nc1cc(S(N)(=O)=O)ccc1F,134 to 136
22,COC(=O)Cn1nc2ccc(Cl)nn2c1=O,158 to 160
23,O=C(O)c1cn(-c2ccc(C(F)(F)F)cn2)nn1,134 to 136
24,O=C(O)CN1CCN(C(=O)OCc2ccccc2)CC1,142 to 144

# More lines, now with the values ahead:
row,melting point [°C],SMILES
1,108 to 110,C#CCNC(=O)CC#N
2,30 to 32,CCOC(=O)COc1ccc(Br)cc1F
3,229 to 231,O=c1ccnc(-c2cccc(O)c2)[nH]1
4,136 to 138,Cc1ccc(N(C(=O)CCl)C2C=CS(=O)(=O)C2)cc1C (stereo unspecified)
5,109 to 111,Cc1cc(N)n(-c2ccc(F)cc2)n1
6,109 to 111,O=C(O)C1CC1c1c(F)cccc1Cl (stereo unspecified)
7,60 to 62,N#Cc1cc(C2CC2)ccn1
8,93 to 95,Cc1ccc(C(C)C)c(OCCC(=O)O)c1
9,129 to 131,CCS(=O)(=O)Nc1ccc(N)cc1OC
10,141 to 143,Nc1[nH]nc(-c2ccccc2)c1-c1ccccc1
11,115 to 117,O=C(O)C1CC(c2ccc(Cl)cc2Cl)=NO1 (stereo unspecified)
12,276 to 278,CN1CCN(S(=O)(=O)c2ccc(Cl)c([N+](=O)[O-])c2)CC1
13,183 to 185,COc1ccc(N2CC(C(=O)O)CC2=O)c(OC)c1 (stereo unspecified)
14,134 to 136,O=C(O)CCNS(=O)(=O)c1cccc([N+](=O)[O-])c1
15,121 to 123,CCOC(=O)c1c(N)sc2c1CCNC2
16,213 to 215,O=C(O)/C=C/c1cc2ccccc2o1
17,120 to 122,CCc1ccc(C(=O)Nc2ccc(N)cc2Cl)s1
18,135 to 137,CC(C)CC(C(=O)O)N1C(=O)C2CC=CCC2C1=O (stereo unspecified)
19,52 to 54,CC(=O)c1ccoc1
20,80 to 82,CCOc1ccc(C(C)=O)cc1CCl
21,109 to 111,CC(=O)OC(OC(C)=O)c1ccc(S(=O)(=O)Cl)cc1
22,48 to 50,Cc1ccc(C(C)O)cc1[N+](=O)[O-] (stereo unspecified)
23,216 to 218,COc1cc(C(=O)O)ccc1OCc1c(C)noc1C
24,144 to 146,O=C1NCCc2ccc(Br)cc21

row,melting point [°C],SMILES
1,313 to 315,Cn1c(S)nc2ccsc2c1=O
2,117 to 119,O=C(O)CCc1ccc(-c2ccccc2F)o1
3,146 to 148,Cc1sc(N)nc1-c1ccc(Cl)cc1
4,58 to 60,CCCS(=O)(=O)Nc1ccccc1C(C)NC (stereo unspecified)
5,249 to 251,CN(C)c1ccc(-n2ccnc2S)cc1
6,70 to 72,Cn1ccnc1C(=O)c1ccc(N)cc1
7,109 to 113,NNc1cnccn1
8,54 to 56,COc1cc(F)c(F)cc1[N+](=O)[O-]
9,154 to 156,O=C(O)COc1ccc2c(c1)CCC2
10,170 to 172,Nc1ccc2c(c1)CCC(=O)N2
11,96 to 98,Cc1ccc(S(=O)(=O)N2CCCC2C(=O)O)cc1 (stereo unspecified)
12,39 to 42,C=CS(=O)(=O)Oc1ccccc1
13,37 to 39,O=C(CCl)Cc1c(F)cccc1Cl
14,94 to 96,COc1ccc2c(c1)OCC2CC(=O)O (stereo unspecified)
15,167 to 169,CC(=O)Cn1c(CCl)nc2ccccc2c1=O
16,169 to 171,NNc1nc(-c2cccnc2)no1
17,173 to 175,O=C(O)c1cnn(-c2ccccc2)c1C1CC1
18,41 to 43,CCN(C)c1ccc(C(C)=O)cc1
19,115 to 117,CCCC(=O)N1CCCC1C(=O)O (stereo unspecified)
20,61 to 63,COc1ccccc1-c1noc(CCl)n1
21,155 to 157,NS(=O)(=O)c1c(Cl)cccc1C(F)(F)F
22,144 to 148,CC(C)(C)c1ccccc1OCC(=O)O
23,143 to 145,Clc1nc2cccnc2nc1Cl
